Tests used:
Format in all cases: cell-based
[1] = tested on: K-562; test: NCI 60 cell line screen (SRB), Leukemia
[2] = tested on: EKVX; test: NCI 60 cell line screen (SRB), Non-Small Cell Lung Cancer
[3] = tested on: HOP-62; test: as above
[4] = tested on: NCI-H322M; test: as above
[5] = tested on: NCI-H460; test: as above
[6] = tested on: HCT-15; test: NCI 60 cell line screen (SRB), Colon Cancer
[7] = tested on: SW-620; test: NCI 60 cell line screen (SRB), Colon Cancer
[8] = tested on: HCC-2998; test: NCI 60 cell line screen (SRB), Colon Cancer
[9] = tested on: U251; test: NCI 60 cell line screen (SRB), CNS Cancer
[10] = tested on: MALME-3M; test: NCI 60 cell line screen (SRB), Melanoma
[11] = tested on: SK-MEL-5; test: NCI 60 cell line screen (SRB), Melanoma
[12] = tested on: OVCAR-4; test: NCI 60 cell line screen (SRB), Ovarian Cancer
[13] = tested on: SK-OV-3; test: NCI 60 cell line screen (SRB), Ovarian Cancer
[14] = tested on: A498; test: NCI 60 cell line screen (SRB), Renal Cancer
[15] = tested on: ACHN; test: NCI 60 cell line screen (SRB), Renal Cancer
[16] = tested on: RXF 393; test: NCI 60 cell line screen (SRB), Renal Cancer
[17] = tested on: SN12C; test: NCI 60 cell line screen (SRB), Renal Cancer
[18] = tested on: PC-3; test: NCI 60 cell line screen (SRB), Prostate Cancer
[19] = tested on: DU-145; test: NCI 60 cell line screen (SRB), Prostate Cancer
[20] = tested on: MCF7; test: NCI 60 cell line screen (SRB), Breast Cancer
[21] = tested on: NCI/ADR-RES; test: NCI 60 cell line screen (SRB), Breast Cancer
[22] = tested on: MDA-MB231/ATCC; test: NCI 60 cell line screen (SRB), Breast Cancer; details: MDA- (first line of MDA-MB231/ATCC)
[23] = tested on: MB231/ATCC (second line of the wrapped label, with values of its own); test: NCI 60 cell line screen (SRB), Breast Cancer
[24] = tested on: HS 578T; test: NCI 60 cell line screen (SRB), Breast Cancer
[25] = tested on: MDA-MB-435; test: NCI 60 cell line screen (SRB), Breast Cancer
[26] = tested on: MDA-N; test: NCI 60 cell line screen (SRB), Breast Cancer

CC1=C(C=Cc2cccc(C=CC3=C(C)C4CCC(C)C5CCC6(C)OOC45C(O3)O6)c2)OC2OC3(C)CCC4C(C)CCC1C24OO3 (stereo not drawn) [VII-g]
Log10TGI ([1]; PG=0): −7.31 log10M | Log10GI50 ([1]; PG=+50): −7.31 log10M | Log10GI50 ([1]; Table IV (LC50, PG=−50)): >−4.00 log10M | Log10TGI ([2]; PG=0): >−4.00 log10M | Log10GI50 ([2]; PG=+50): −7.17 log10M | Log10GI50 ([2]; Table IV (LC50, PG=−50)): >−4.00 log10M | Log10TGI ([3]; PG=0): >−4.00 log10M | Log10GI50 ([3]; PG=+50): −6.45 log10M | Log10GI50 ([3]; Table IV (LC50, PG=−50)): >−4.00 log10M | Log10TGI ([4]; PG=0): −4.87 log10M | Log10GI50 ([4]; PG=+50): −7.42 log10M | Log10TGI ([5]; PG=0): >−4.00 log10M | Log10 GI50 or Log10 LC50 ([5]; PG=+50): −5.13 log10M | Log10TGI ([6]; PG=0): −4.88 log10M | log10 GI50 (PG=+50) or LC50 (PG=−50), per row condition ([6]; PG=+50): −7.05 log10M | log10 GI50 (PG=+50) or LC50 (PG=−50), per row condition ([6]; Table IV (LC50, PG=−50)): >−4.00 log10M | Log10TGI ([7]; PG=0): >−4.00 log10M | Log10GI50 ([7]; PG=+50): −7.22 log10M | Log10TGI ([8]; PG=0): >−4.00 log10M | Log10GI50 ([8]; PG=+50): −6.12 log10M | Log10TGI ([9]; PG=0): >−4.00 log10M | Log10GI50 ([9]; PG=+50): −6.86 log10M | Log10GI50 ([9]; Table IV (LC50, PG=−50)): >−4.00 log10M | Log10TGI ([10]; PG=0): −4.24 log10M | Log10GI50 ([10]; PG=+50): −6.60 log10M | Log10GI50 ([10]; Table IV (LC50, PG=−50)): >−4.00 log10M | Log10TGI ([11]; PG=0): −5.16 log10M | Log10 GI50 or LC50 ([11]; PG=+50): −6.71 log10M | Log10 GI50 or LC50 ([11]; Table IV (LC50, PG=−50)): >−4.00 log10M | Log10GI50 ([12]; OVCAR-4, PG=+50): −6.96 log10M | Log10GI50 ([12]; Table IV (LC50, PG=−50), OVCAR−4): >−4.00 log10M | Log10TGI ([13]; PG=0): >−4.00 log10M | Log10GI50 ([13]; PG=+50): −5.05 log10M | Log10GI50 ([13]; Table IV (LC50, PG=−50)): >−4.00 log10M | Log10TGI ([14]; PG=0): −4.05 log10M | Log10GI50 ([14]; PG=+50): −6.04 log10M | Log10GI50 ([14]; Table IV (LC50, PG=−50)): >−4.00 log10M | Log10TGI ([15]; PG=0): >−4.00 log10M | Log10 GI50 or LC50 (see conditions) ([15]; PG=+50): −6.37 log10M | Log10 GI50 or LC50 (see conditions) ([15]; Table IV (LC50, PG=−50)): >−4.00 log10M | Log10TGI ([16]; PG=0): >−4.00 log10M | Log10GI50 ([16]; PG=+50): −5.80 log10M | Log10GI50 ([16]; Table IV (LC50, PG=−50)): >−4.00 log10M | Log10TGI ([17]; SN12C, PG=0): >−4.00 log10M | Log10GI50 ([17]; SNI2C, PG=+50): −6.69 log10M | Log10GI50 ([17]; Table IV (LC50, PG=−50), SN12C): >−4.00 log10M | Log10TGI ([18]; PG=0): >−4.00 log10M | Log10 GI50 (PG=+50) or LC50 (PG=−50) ([18]; PG=+50): −7.32 log10M | Log10 GI50 (PG=+50) or LC50 (PG=−50) ([18]; Table IV (LC50, PG=−50)): >−4.00 log10M | Log10TGI ([19]; PG=0): >−4.00 log10M | Log10GI50 ([19]; PG=+50): −5.71 log10M | Log10GI50 ([19]; Table IV (LC50, PG=−50)): >−4.00 log10M | Log10TGI ([20]; PG=0): >−4.00 log10M | Log10GI50 ([20]; PG=+50): −6.63 log10M | Log10GI50 ([20]; Table IV (LC50, PG=−50)): >−4.00 log10M | Log10TGI ([21]; PG=0): >−4.00 log10M | Log10GI50 ([21]; PG=+50): −5.27 log10M | Log10GI50 ([21]; Table IV (LC50, PG=−50)): >−4.00 log10M | Log10TGI ([22]; PG=0): −4.74 log10M | Log10 GI50 or LC50 (per conditions) ([22]; PG=+50): −6.07 log10M | Log10 GI50 or LC50 (per conditions) ([22]; Table IV (LC50, PG=−50)): >−4.00 log10M | Log10GI50 ([23]; PG=+50): −7.10 log10M | Log10GI50 ([23]; Table IV (LC50, PG=−50)): >−4.00 log10M | Log10TGI ([24]; PG=0): −4.32 log10M | Log10GI50 ([24]; PG=+50): −7.14 log10M | Log10GI50 ([24]; Table IV (LC50, PG=−50)): >−4.00 log10M | Log10TGI ([25]; MDA-MB-435, PG=0): >−4.00 log10M | Log10GI50 ([25]; MDA-MB−435, PG=+50): −6.57 log10M | Log10GI50 ([25]; Table IV (LC50, PG=−50), MDA-MB-435): >−4.00 log10M | Log10TGI ([26]; PG=0): −4.83 log10M | Log10GI50 ([26]; PG=+50): −6.82 log10M | Log10GI50 ([26]; Table IV (LC50, PG=−50)): >−4.00 log10M
